Patent US12428406B2 (PMV Pharmaceuticals, Inc., priority 2019, dated 2025)

biological target: T1, p53 Y220C (Homo sapiens, UniProt P04637, Y220C); assay: In vitro DNA binding activity assay (HTRF / TR-FRET): stabilization of p53 Y220C and increase of its DNA binding activity; type: biochemical; conditions: recombinant His-tagged p53 Y220C DNA binding domain (aa 94-312), biotin-labeled consensus DNA, incubated at 27° C. or 29° C. for 60 min
T1 construct: The recombinant protein was a truncation mutant containing only amino acids 94-312 of p53; made in house; host or cells: E. coli
Method in brief: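 Test compounds, diluted 3-fold in DMSO from 4.5 mM stocks, were incubated with bacterially expressed His-tagged p53 Y220C at room temperature for 15 min, and after a further step for 20 min. DNA binding was detected by time-resolved FRET between APC and europium labels. SC150 marks the concentration increasing binding by 50%.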

T1 sequence (P04637 94-312, change not shown): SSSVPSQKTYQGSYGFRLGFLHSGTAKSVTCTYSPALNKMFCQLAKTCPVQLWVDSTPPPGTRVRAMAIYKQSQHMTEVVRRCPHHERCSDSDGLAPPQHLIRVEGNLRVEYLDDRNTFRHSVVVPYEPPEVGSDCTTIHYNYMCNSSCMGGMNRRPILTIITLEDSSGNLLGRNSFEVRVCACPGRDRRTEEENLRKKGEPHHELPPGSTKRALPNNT

SMILES | SC150 (concentration of the compound required to increase the DNA binding activity by 50%)
COc1cc(S(=O)(=O)N(CCO)CCO)ccc1NCC#Cc1cc2c(N[C@H]3CC[C@@H](N(C)C)CC3)cccc2n1CC(F)(F)F [Compound 69A, N,N-bis(2-hydroxyethyl)-3-methoxy-4-{[3-(4-{[(1S,4S)-4-(dimethyl-amino)cyclohexyl]amino}-1-(2,2,2-trifluoroethyl)-1H-indol-2-yl)prop-2-yn-1-yl]amino}benzene-1-sulfonamide] | + (+ = 0 μM ≤ SC150 < 0.05 μM)
CNC(=O)c1ccc(NCC#Cc2cc3c(N[C@H]4CC[C@H](N5CCC(OC)CC5)CC4)cccc3n2CC(F)(F)F)c(OC)c1 [Compound 352A, 3-methoxy-N-methyl-4-{[3-(4-{[(1R,4R)-4-(4-methoxypiperidin-1-yl)cyclohexyl]amino}-1-(2,2,2-trifluoroethyl)-1H-indol-2-yl)prop-2-yn-1-yl]amino}benzamide] | + (+ = 0 μM ≤ SC150 < 0.05 μM)
CS(=O)(=O)c1ccc(NCC#Cc2cc3c(N[C@H]4CC[C@H](N5CC6(CCOCC6)C5)CC4)cccc3n2CC(F)(F)F)c(OCC(=O)O)c1 [Compound 311A, 2-(2-((3-(4-(((1R,4R)-4-(7-oxa-2-azaspiro[3.5]nonan-2-yl)cyclohexyl)amino)-1-(2,2,2-trifluoroethyl)-1H-indol-2-yl)prop-2-yn-1-yl)amino)-5-(methylsulfonyl)phenoxy)acetic acid] | ++ (++ = 0.05 μM ≤ SC150 < 0.1 μM)
COc1cc(C(=O)NCC(COC(=O)C(C)C)OC(=O)C(C)C)ccc1NCC#Cc1cc2c(N[C@@H]3CCN(C)C[C@@H]3F)cccc2n1CC(F)(F)F (stereo partly drawn) [Compound 967A, 1-[(4-{[3-(4-{[(3S,4R)-3-fluoro-1-methylpiperidin-4-yl]amino}-1-(2,2,2-trifluoroethyl)-1H-indol-2-yl)prop-2-yn-1-yl]amino}-3-methoxyphenyl)formamido]-3-[(2-methylpropanoyl)oxy]propan-2-yl 2-methylpropanoate] | + (+ = 0 μM ≤ SC150 < 0.05 μM)
COc1cc(S(N)(=O)=O)ccc1NCC#Cc1cc2c(N[C@H]3CC[C@H](N4CC[S+]([O-])CC4)CC3)cccc2n1CC(F)(F)F [Compound 370A, 3-methoxy-4-{[3-(4-{[(1R,4R)-4-(1-oxo-1λ^4-thiomorpholin-4-yl)cyclohexyl]amino}-1-(2,2,2-trifluoro-ethyl)-1H-indol-2-yl)prop-2-yn-1-yl]amino} benzene-1-sulfonamide] | + (+ = 0 μM ≤ SC150 < 0.05 μM)
COc1cc(C(F)(F)F)ccc1NCC#Cc1cc2c(N[C@H]3CC[C@H](N(C)C)CC3)cccc2n1CC(F)(F)F [Compound 134A, (1R,4R)—N^4-[2-(3-{[2-methoxy-4-(trifluoromethyl)phenyl]amino}prop-1-yn-1-yl)-1-(2,2,2-trifluoroethyl)-1H-indol-4-yl]-N^1,N^1-dimethylcyclohexane-1,4-diamine] | + (+ = 0 μM ≤ SC150 < 0.05 μM)
COCC(=O)N1CC[C@H](Nc2cccc3c2cc(C#CCNc2ccc(S(C)(=O)=O)cc2OC)n3CC(F)(F)F)[C@H](F)C1 [Compound 867A, 1-[(3R,4S)-3-fluoro-4-[(2-{3-[(4-methanesulfonyl-2-methoxyphenyl)amino]prop-1-yn-1-yl}-1-(2,2,2-trifluoroethyl)-1H-indol-4-yl)amino]piperidin-1-yl]-2-methoxyethan-1-one] | + (+ = 0 μM ≤ SC150 < 0.05 μM)
COc1cc(C(C)(C)C#N)ncc1NCC#Cc1cc2c(NC3CCS(=O)(=O)CC3)cccc2n1CC(F)(F)F [Compound 1034A, 2-{5-[(3-{4-[(1,1-dioxo-1λ^6-thian-4-yl)amino]-1-(2,2,2-trifluoroethyl)-1H-indol-2-yl}prop-2-yn-1-yl)amino]-4-methoxypyridin-2-yl}-2-methylpropanenitrile] | + (+ = 0 μM ≤ SC150 < 0.05 μM)
CNC(=O)c1ccc(NCC#Cc2cc3c(N[C@H]4CC[C@H](N5CCC(C(F)(F)F)CC5)CC4)cccc3n2CC(F)(F)F)c(OC)c1 [Compound 438A, 3-methoxy-N-methyl-4-{[3-(4-{[(1R,4R)-4-[4-(trifluoro-methyl)piperidin-1-yl]cyclohexyl]amino}-1-(2,2,2-trifluoroethyl)-1H-indol-2-yl)prop-2-yn-1-yl]amino}benzamide] | + (+ = 0 μM ≤ SC150 < 0.05 μM)
CNC(=O)c1ccc(NCC#Cc2cc3c(NC4CCN(CC(O)COC)CC4)cccc3n2CC(F)(F)F)c(OCCF)c1 (stereo not drawn) [Compound 652A, 3-(2-fluoroethoxy)-4-{[3-(4-{[1-(2-hydroxy-3-methoxypropyl)piperidin-4-yl]amino}-1-(2,2,2-trifluoroethyl)-1H-indol-2-yl)prop-2-yn-1-yl]amino}-N-methylbenzamide] | + (+ = 0 μM ≤ SC150 < 0.05 μM)
CN(C)[C@H]1CC[C@@H](Nc2cccc3c2cc(C#CCOc2ccc(S(C)(=O)=O)cc2N)n3CC(F)(F)F)CC1 [Compound 94A, (1S,4S)-N4-{2-[3-(2-amino-4-methane-sulfonylphenoxy)prop-1-yn-1-yl]-1-(2,2,2-trifluoroethyl)-1H-indol-4-yl}-N^1,N^1-dimethylcyclohexane-1,4-diamine] | +++ (+++ = 0.1 μM ≤ SC150 < 0.2 μM)
CCS(=O)(=O)c1ccc(NCC#Cc2cc3c(N[C@H]4CC[C@@H](N5CC6(CCOCC6)C5)CC4)cccc3n2CC(F)(F)F)c(OC)c1 [Compound 315A, 2-(3-{[4-(ethanesulfonyl)-2-methoxyphenyl]amino}prop-1-yn-1-yl)-N-[(1S,4S)-4-{7-oxa-2-azaspiro[3.5]nonan-2-yl}cyclohexyl]-1-(2,2,2-trifluoroethyl)-1H-indol-4-amine] | + (+ = 0 μM ≤ SC150 < 0.05 μM)
COc1cc(C(=O)O)ccc1NCC#Cc1cc2c(N[C@H]3CCN(C(C)C)C[C@H]3F)cccc2n1CC(F)(F)F (racemic) [Compound 796A, 4-((3-(4-(((3R,4S)-3-fluoro-1-isopropylpiperidin-4-yl)amino)-1-(2,2,2-trifluoroethyl)-1H-indol-2-yl)prop-2-yn-1-yl)amino)-3-methoxybenzoic acid] | + (+ = 0 μM ≤ SC150 < 0.05 μM)
COCC(CN1CCC(Nc2cccc3c2cc(C#CCNc2ccc(S(C)(=O)=O)cc2OC)n3CC(F)(F)F)CC1)OC(=O)C(C)C (stereo not drawn) [Compound 603A, 1-{4-[(2-{3-[(4-methanesulfonyl-2-methoxyphenyl)amino]prop-1-yn-1-yl}-1-(2,2,2-trifluoroethyl)-1H-indol-4-yl)amino]piperidin-1-yl}-3-methoxypropan-2-yl 2-methylpropanoate] | + (+ = 0 μM ≤ SC150 < 0.05 μM)
COc1cc(C(=O)NC(C)CO)ccc1NCC#Cc1cc2c(N[C@@H]3CCN(C)C[C@@H]3F)cccc2n1CC(F)(F)F (stereo partly drawn) [Compound 1056A, 4-{[3-(4-{[(3S,4R)-3-fluoro-1-methylpiperidin-4-yl]amino}-1-(2,2,2-trifluoroethyl)-1H-indol-2-yl)prop-2-yn-1-yl]amino}-N-(1-hydroxypropan-2-yl)-3-methoxybenzamide] | + (+ = 0 μM ≤ SC150 < 0.05 μM)
